Among the data in patent publication US10501449B2 (priority 2018, dated 2019) are inhibition and IC50 values, retold here.

The target in one data set is hERG channels (Homo sapiens (Human), UniProt Q12809). As to the kind of experiment: hERG Manual Patch Clamp Assay. The format is cell-based. Conditions: human, HEK 293 cells stably expressing hERG channels, pH 7.4, 1 uM, read-out: hERG EP % Inh @ 1 uM.
The target of data set [1] is T1, hROMK (human Kir1.1) (Homo sapiens (Human), UniProt P48048). The data set can be described thus: cell-based. The settings on record: CHO T-Rex hROMK stable cell line; thallium flux; 10-point concentration response curve; read-out: Human ROMK Th Flux IC50.
Data set [2] addresses T1, hROMK (human Kir1.1). As to the kind of experiment: cell-based. The format is cell-based. The settings on record: whole-cell manual patch clamp, CHO T-Rex hROMK stable cell line, voltage step to -120 mV, Ba2+-subtracted hROMK current; read-out: ROMK EP IC50.
Protocol: ROMK Manual Patch Clamp Assay
Cell culture conditions: Cells were maintained in conditions similar to those for Thallium flux assay. hROMK channel expression was induced by adding 0.6 μg/ml of Doxycycline 16-24 hrs prior to the experiments. On the day of experiment, the cells were dissociated using Versene, resuspended in growth media and plated onto coverslips 15 minutes prior to use.
Electrophysiology: The coverslip plated with cells was placed in the experiment chamber perfused with bath solution composed of (in mM): 135 NaCl, 5 KCl, 2 CaCl2, 1 MgCl2, 10 HEPES, 5 Glucose (pH 7.4). Patch pipettes with resistance between 2-5 Megaohms, when filled with a solution containing (in mM): 135 KCl, 1 EGTA, 1 MgCl2, 10 HEPES, 2 Na2ATP (pH 7.3), were used to form gigaseals. The cells were voltage clamped at −75 mV in whole-cell configuration using an Axopatch 200b or Multiclamp 700b (Molecular Devices) amplifier controlled by pClamp Software (Molecular Devices). The current was recorded by applying a voltage step to −120 mV every 10 seconds. […] At the end of the experiment, the cells were perfused with bath solution containing 2 mM Ba^2+ to isolate the contribution of hROMK current.
Data analysis: Raw current values (5 traces each for control, different compound concentration and Ba^2+ treatment groups) were exported from Clampfit into Microsoft Excel where the current remaining after application of Ba^2+ was subtracted from raw current to obtain hROMK specific current.

Like-named read-outs stand apart in the source and are kept apart here.

Chain of hERG channels (Q12809 whole entry): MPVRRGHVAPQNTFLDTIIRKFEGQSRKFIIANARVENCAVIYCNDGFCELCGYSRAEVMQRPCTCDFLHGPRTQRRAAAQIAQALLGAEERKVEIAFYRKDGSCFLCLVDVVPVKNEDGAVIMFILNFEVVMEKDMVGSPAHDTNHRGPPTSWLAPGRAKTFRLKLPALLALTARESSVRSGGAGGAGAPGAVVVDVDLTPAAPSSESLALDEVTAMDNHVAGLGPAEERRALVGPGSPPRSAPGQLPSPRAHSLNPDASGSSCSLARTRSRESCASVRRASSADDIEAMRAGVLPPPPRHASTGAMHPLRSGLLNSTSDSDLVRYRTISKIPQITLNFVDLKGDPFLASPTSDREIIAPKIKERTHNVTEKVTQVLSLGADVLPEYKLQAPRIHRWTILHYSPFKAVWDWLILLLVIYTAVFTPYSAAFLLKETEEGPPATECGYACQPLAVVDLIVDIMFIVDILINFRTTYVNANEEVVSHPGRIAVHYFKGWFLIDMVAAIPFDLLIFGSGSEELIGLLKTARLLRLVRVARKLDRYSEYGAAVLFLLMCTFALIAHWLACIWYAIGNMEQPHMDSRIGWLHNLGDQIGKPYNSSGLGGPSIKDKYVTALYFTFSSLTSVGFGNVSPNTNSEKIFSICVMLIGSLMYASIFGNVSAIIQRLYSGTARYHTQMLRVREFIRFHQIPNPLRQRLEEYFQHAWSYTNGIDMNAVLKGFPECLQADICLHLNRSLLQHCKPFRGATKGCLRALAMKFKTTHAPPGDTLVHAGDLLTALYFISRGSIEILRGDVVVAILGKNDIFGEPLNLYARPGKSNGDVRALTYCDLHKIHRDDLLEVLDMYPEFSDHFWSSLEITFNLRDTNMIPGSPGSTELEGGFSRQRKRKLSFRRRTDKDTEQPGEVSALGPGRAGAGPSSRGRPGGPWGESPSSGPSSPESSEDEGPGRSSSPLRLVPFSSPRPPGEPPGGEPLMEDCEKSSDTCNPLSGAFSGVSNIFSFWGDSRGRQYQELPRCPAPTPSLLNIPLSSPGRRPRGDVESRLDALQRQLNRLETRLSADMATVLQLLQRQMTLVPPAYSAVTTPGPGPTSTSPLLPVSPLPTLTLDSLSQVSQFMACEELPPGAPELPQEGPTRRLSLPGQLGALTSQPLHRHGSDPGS
T1 sequence (P48048 whole entry): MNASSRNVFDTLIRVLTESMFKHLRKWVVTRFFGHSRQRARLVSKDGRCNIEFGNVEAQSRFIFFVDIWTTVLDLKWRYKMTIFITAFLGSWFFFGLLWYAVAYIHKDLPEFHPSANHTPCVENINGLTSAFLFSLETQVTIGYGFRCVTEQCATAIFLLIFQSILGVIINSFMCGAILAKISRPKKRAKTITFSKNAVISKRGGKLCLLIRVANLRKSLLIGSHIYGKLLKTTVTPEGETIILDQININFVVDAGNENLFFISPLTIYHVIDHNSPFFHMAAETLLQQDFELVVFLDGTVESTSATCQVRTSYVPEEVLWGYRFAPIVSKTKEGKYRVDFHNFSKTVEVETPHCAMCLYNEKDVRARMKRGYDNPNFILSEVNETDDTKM

On to `Cc1ncn(-c2ncc(CN3C[C@@H](c4ccc5c(c4C)COC5=O)N[C@@H](C)C3)cn2)c1C` [Example 94-I, 5-((2R,6S)-4-((2-(4,5-dimethyl-1H-imidazol-1-yl)pyrimidin-5-yl)methyl)-6-methylpiperazin-2-yl)-4-methylisobenzofuran-1(3H)-one], for which the inhibition at 1 µM at hERG channels worked out at 4.3%. The half-maximal inhibitory concentration (IC50) at hROMK (human Kir1.1) [1] amounted to 39 nM; on hROMK (human Kir1.1) [2], 14 nM.

With `COc1nc(-n2cc(CN3C[C@@H](c4ccc5c(c4C)COC5=O)N[C@@H](C)C3)cn2)ncc1C#N` [Example 99-I, 4-methoxy-2-(4-(((3S,5R)-3-methyl-5-(4-methyl-1-oxo-1,3-dihydroisobenzofur-an-5-yl)piperazin-1-yl)methyl)-1H-pyrazol-1-yl)pyrimidine-5-carbonitrile], on hERG channels, the inhibition at 1 µM is 9.6%. Further, the IC50 on hROMK (human Kir1.1) [1] was 33 nM; on hROMK (human Kir1.1) [2], 29 nM.

Regarding `Cc1nc(-n2ncc(CN3C[C@@H](c4ccc5c(c4C)COC5=O)N[C@@H](C)C3)n2)ncc1C#N` [Example 100-I, 4-methyl-2-(4-(((3S,5R)-3-methyl-5-(4-methyl-1-oxo-1,3-dihydroisobenzofur-an-5-yl)piperazin-1-yl)methyl)-2H-1,2,3-triazol-2-yl)pyrimidine-5-carbonitrile], the inhibition at 1 µM at hERG channels came to 3.6%. Moreover, the figures for the IC50 on hROMK (human Kir1.1) [1] and at hROMK (human Kir1.1) [2] were 40 nM and 25 nM, respectively.

With `COc1cc(-n2cnc(CN3C[C@@H](c4ccc5c(c4C)COC5=O)N[C@@H](C)C3)c2)ccc1C#N` [Example 101-I, 2-methoxy-4-(4-(((3S,5R)-3-methyl-5-(4-methyl-1-oxo-1,3-dihydroisobenzofur-an-5-yl)piperazin-1-yl)methyl)-1H-imidazol-1-yl)benzonitrile], the inhibition at 1 µM on hERG channels amounted to 3%. Moreover, the IC50 at hROMK (human Kir1.1) [1] came to 26 nM; at hROMK (human Kir1.1) [2], 34 nM.

Consider `Cc1cc(-n2cc(CN3C[C@@H](c4ccc5c(c4C)COC5=O)N[C@@H](C)C3)cn2)ccn1` [Example 102-I, 4-methyl-5-((2R,6S)-6-methyl-4-((1-(2-methylpyridin-4-yl)-1H-pyrazol-4-yl)methyl)piperazin-2-yl)isobenzofuran-1(3H)-one], for which the inhibition at 1 µM at hERG channels came out at 5.6%. The IC50 was 48 nM at hROMK (human Kir1.1) [1] and 17 nM at hROMK (human Kir1.1) [2].

With `COc1nc(-n2cnc(CN3C[C@@H](c4ccc5c(c4C)COC5=O)N[C@@H](C)C3)c2)ncc1C#N` [Example 103-I, 4-methoxy-2-(4-(((3S,5R)-3-methyl-5-(4-methyl-1-oxo-1,3-dihydroisobenzofur-an-5-yl)piperazin-1-yl)methyl)-1H-imidazol-1-yl)pyrimidine-5-carbonitrile], at hERG channels, the inhibition at 1 µM worked out at 14%. The values for the IC50 at hROMK (human Kir1.1) [1] and on hROMK (human Kir1.1) [2] were 25 nM and 29 nM, respectively.

`Cc1cc(-n2cc(CN3C[C@@H](c4ccc5c(c4C)COC5=O)N[C@@H](C)C3)cn2)ncc1C#N` [Example 105-I, 4-methyl-6-(4-(((3S,5R)-3-methyl-5-(4-methyl-1-oxo-1,3-dihydroisobenzofur-an-5-yl)piperazin-1-yl)methyl)-1H-pyrazol-1-yl)nicotinonitrile]: the inhibition at 1 µM at hERG channels stood at 9.7%. In addition, the concentration for half-maximal inhibition (IC50) on hROMK (human Kir1.1) [1] is 26 nM; at hROMK (human Kir1.1) [2], 11 nM.

In the case of `COc1cc(-n2ncc(CN3C[C@@H](c4ccc5c(c4C)COC5=O)N[C@@H](C)C3)n2)ncc1C#N` [Example 107-I, 4-methoxy-6-(4-(((3S,5R)-3-methyl-5-(4-methyl-1-oxo-1,3-dihydroisobenzofur-an-5-yl)piperazin-1-yl)methyl)-2H-1,2,3-triazol-2-yl)nicotinonitrile], at hERG channels, the inhibition at 1 µM was 13%. Besides, the IC50 at hROMK (human Kir1.1) [1] worked out at 26 nM; at hROMK (human Kir1.1) [2], 18 nM.

Regarding `Cc1nn(-c2ncc(CN3C[C@@H](c4ccc5c(c4C)COC5=O)N[C@@H](C)C3)cn2)cc1C#N` [Example 108-I, 3-methyl-1-(5-(((3S,5R)-3-methyl-5-(4-methyl-1-oxo-1,3-dihydroisobenzofur-an-5-yl)piperazin-1-yl)methyl)pyrimidin-2-yl)-1H-pyrazole-4-carbonitrile], at hERG channels, the inhibition at 1 µM turned out to be 8.7%. Further, the IC50 on hROMK (human Kir1.1) [1] was found to be 30 nM; on hROMK (human Kir1.1) [2], 21 nM.

As to `COc1cc(-n2cnc(CN3C[C@@H](c4ccc5c(c4C)COC5=O)N[C@@H](C)C3)c2)ccn1` [Example 126-I, 5-((2R,6S)-4-((1-(2-methoxypyridin-4-yl)-1H-imidazol-4-yl)methyl)-6-methylpiperazin-2-yl)-4-methylisobenzofuran-1(3H)-one], on hERG channels, the inhibition at 1 µM was found to be 7.8%. The IC50 was found to be 34 nM on hROMK (human Kir1.1) [1] and 17 nM on hROMK (human Kir1.1) [2].

Regarding `Cc1c([C@@H]2CN(Cc3cnn(-c4ccnc(C(F)F)c4)c3)C[C@H](C)N2)ccc2c1COC2=O` [Example 127-I, 5-((2R,6S)-4-((1-(2-(difluoromethyl)pyridin-4-yl)-1H-pyrazol-4-yl)methyl)-6-methylpiperazin-2-yl)-4-methylisobenzofuran-1(3H)-one], the inhibition at 1 µM on hERG channels worked out at 16%. The half-inhibitory concentration (IC50) came out at 21 nM on hROMK (human Kir1.1) [1] and 14 nM on hROMK (human Kir1.1) [2].

Take `Cc1cc(-c2nc(CN3C[C@@H](c4ccc5c(c4C)COC5=O)N[C@@H](C)C3)co2)ncc1C#N` [Example 130-I]: the inhibition at 1 µM on hERG channels stood at 8.4%. Also, the IC50 at hROMK (human Kir1.1) [1] turned out to be 52 nM; at hROMK (human Kir1.1) [2], 20 nM.

Turning to `Cc1cn(-c2ncc(CN3CCN[C@H](c4ccc5c(c4C)COC5=O)C3)cn2)c(C)n1` [Example 139-I, (R)-5-(4-((2-(2,4-dimethyl-1H-imidazol-1-yl)pyrimidin-5-yl)methyl)piperazin-2-yl)-4-methylisobenzofuran-1(3H)-one], at hERG channels, the inhibition at 1 µM was 6.6%. The half-maximal inhibitory concentration (IC50) at hROMK (human Kir1.1) [1] was 36 nM; at hROMK (human Kir1.1) [2], 30 nM.

For the molecule `Cc1ncn(-c2ncc(CN3CCN[C@H](c4ccc5c(c4C)COC5=O)C3)cn2)c1C` [Example 148-I, (R)-5-(4-((2-(4,5-dimethyl-1H-imidazol-1-yl)pyrimidin-5-yl)methyl)piperazin-2-yl)-4-methylisobenzofuran-1(3H)-one], at hERG channels, the inhibition at 1 µM amounted to 8.8%. Also, the concentration for half-maximal inhibition (IC50) at hROMK (human Kir1.1) [1] came to 27 nM; at hROMK (human Kir1.1) [2] it was 19 nM.

`Cc1nc(-n2ncc(CN3C[C@@H](c4ccc5c(c4C)COC5=O)N[C@@H](C)C3)n2)nc(C)c1C#N` [Example 151-I, 4,6-dimethyl-2-(4-(((3S,5R)-3-methyl-5-(4-methyl-1-oxo-1,3-dihydroisobenzofuran-5-yl)piperazin-1-yl)methyl)-2H-1,2,3-triazol-2-yl)pyrimidine-5-carbonitrile]: the inhibition at 1 µM on hERG channels amounted to 5.1%. For the same molecule, the values for the concentration for half-maximal inhibition (IC50) on hROMK (human Kir1.1) [1] and on hROMK (human Kir1.1) [2] were 43 nM and 64 nM, respectively.

In the case of `Cc1nc(-n2cnc(CN3C[C@@H](c4ccc5c(c4C)COC5=O)N[C@@H](C)C3)c2)ncc1C#N` [Example 164-I, 4-methyl-2-(4-(((3S,5R)-3-methyl-5-(4-methyl-1-oxo-1,3-dihydroisobenzofuran-5-yl)piperazin-1-yl)methyl)-1H-imidazol-1-yl)pyrimidine-5-carbonitrile], the inhibition at 1 µM on hERG channels was 6%. In addition, the IC50 amounted to 31 nM at hROMK (human Kir1.1) [1] and 30 nM on hROMK (human Kir1.1) [2].

In the case of `Cc1c([C@@H]2CN(Cc3ccc(-c4ccc(S(C)(=O)=O)nc4)nc3)C[C@H](C)N2)ccc2c1COC2=O` [Example 165-I, 4-methyl-5-((2R,6S)-6-methyl-4-((6′-(methylsulfonyl)-[2,3′-bipyridin]-5-yl)methyl)piperazin-2-yl)isobenzofuran-1(3H)-one], the inhibition at 1 µM at hERG channels is 5.4%. Besides, the concentration for half-maximal inhibition (IC50) on hROMK (human Kir1.1) [1] is 67 nM; on hROMK (human Kir1.1) [2], 39 nM.

In the case of `COc1nc(-n2ncc(CN3C[C@@H](c4ccc5c(c4C)COC5=O)N[C@@H](C)C3)n2)ncc1C#N` [Example 166-I, 4-methoxy-2-(4-(((3S,5R)-3-methyl-5-(4-methyl-1-oxo-1,3-dihydroisobenzofuran-5-yl)piperazin-1-yl)methyl)-2H-1,2,3-triazol-2-yl)pyrimidine-5-carbonitrile], the inhibition at 1 µM on hERG channels came out at 6%. In addition, the IC50 at hROMK (human Kir1.1) [1] is 30 nM; at hROMK (human Kir1.1) [2], 13 nM.

Take `COc1nc(-n2cc(CN3C[C@@H](c4ccc5c(c4C)COC5=O)N[C@@H](C)C3)nc2C)ncc1C#N` [Example 167-I, 4-methoxy-2-(2-methyl-4-(((3S,5R)-3-methyl-5-(4-methyl-1-oxo-1,3-dihydroisobenzofuran-5-yl)piperazin-1-yl)methyl)-1H-imidazol-1-yl)pyrimidine-5-carbonitrile]: the inhibition at 1 µM on hERG channels was 11%. Further, the IC50 on hROMK (human Kir1.1) [1] came to 26 nM; at hROMK (human Kir1.1) [2], 18 nM.

Turning to `COc1cc(-n2ncc(CN3CCN[C@H](c4ccc5c(c4C)COC5=O)C3)n2)ncc1C#N` [Example 168-I, (R)-4-methoxy-6-(4-((3-(4-methyl-1-oxo-1,3-dihydroisobenzofuran-5-yl)piperazin-1-yl)methyl)-2H-1,2,3-triazol-2-yl)nicotinonitrile], on hERG channels, the inhibition at 1 µM was 22%. The IC50 turned out to be 20 nM on hROMK (human Kir1.1) [1] and 29 nM on hROMK (human Kir1.1) [2].

In the case of `COc1cc(-n2cc(CN3CC[C@@H](O)[C@H](c4ccc5c(c4C)COC5=O)C3)n(C)c2=O)ncc1C#N` [Example 171-I, 6-(4-(((3R,4R)-4-hydroxy-3-(4-methyl-1-oxo-1,3-dihydroisobenzofuran-5-yl)piperidin-1-yl)methyl)-3-methyl-2-oxo-2,3-dihydro-1H-imidazol-1-yl)-4-methoxynicotinonitrile], the inhibition at 1 µM at hERG channels was determined as 16%. Also, the IC50 at hROMK (human Kir1.1) [1] stood at 27 nM; on hROMK (human Kir1.1) [2] it was 26 nM.

Consider `Cc1nccc(-n2cc(CN3C[C@@H](c4ccc5c(c4C)COC5=O)N[C@@H](C)C3)n(C)c2=O)n1` [Example 173-I, 3-methyl-4-(((3S,5R)-3-methyl-5-(4-methyl-1-oxo-1,3-dihdyroisobenzofuran-5-yl)piperazin-1-yl)methyl)-1-(2-methylpyrimidin-4-yl)-1,3-dihydro-2H-imidazol-2-one], for which the inhibition at 1 µM on hERG channels is 4%. Besides, the IC50 on hROMK (human Kir1.1) [1] is 55 nM; on hROMK (human Kir1.1) [2], 21 nM.
